Common to all, as to assay type: in vivo
Series [1] relates to barnyard grass. Put plainly: Test Example 1: weedkilling efficacy, preemergent weed treatment in the submerged state; A: barnyard grass. The conditions noted are these: treatment dosage 320 g/ha. In outline:
(§1)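 Pre-emergence application onto floodwater (4 cm, alluvial soil) on the day of sowing, dose expressed as g/ha from diluted emulsion formulation. Weeds sown with 2.5-leaf transplanted rice as crop; plants held at 25–30 °C in greenhouse and scored against assessment criteria after 3 weeks.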

Series [2] deals with bulrush. As to the kind of experiment: Test Example 1: weedkilling efficacy, preemergent weed treatment in the submerged state; B: bulrush. The following applies: treatment dosage 320 g/ha. In outline: as §1
The test system of series [3] is oval-leafed pondweed. Put plainly: Test Example 1: weedkilling efficacy, preemergent weed treatment in the submerged state; C: oval-leafed pondweed. The conditions noted are these: treatment dosage 320 g/ha. The gist of the method: as §1
Another series deals with transplanted rice. As to the kind of experiment: Test Example 1: preemergent weed treatment in the submerged state, effect on crop; a: transplanted rice. The following applies: treatment dosage 320 g/ha. In outline: as §1
For series [4], the system named is barnyard grass. As to the kind of experiment: Test Example 2: weedkilling efficacy, growth period weed treatment in the submerged state; A: barnyard grass. The following applies: treatment dosage 320 g/ha. The gist of the method:
(§2)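 Weeds treated at the 1-2 leaf stage by application of diluted emulsion onto floodwater (4 cm depth, alluvial soil) at specified g/ha. Grown in greenhouse at 25 to 30° C; herbicidal effect rated three weeks after treatment.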

Series [5] has as its system bulrush. As to the kind of experiment: Test Example 2: weedkilling efficacy, growth period weed treatment in the submerged state; B: bulrush. The conditions noted are these: treatment dosage 320 g/ha. The gist of the method: as §2
In series [6] the test system is oval-leafed pondweed. As to the kind of experiment: Test Example 2: weedkilling efficacy, growth period weed treatment in the submerged state; C: oval-leafed pondweed. The following applies: treatment dosage 320 g/ha. In outline: as §2
A further series deals with crabgrass. As to the kind of experiment: Test Example 3: weedkilling efficacy through soil treatment; D: crabgrass. The following applies: soil treatment, treatment dosage 320 g/ha. The gist of the method:
(§3)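 Crop and weed responses were judged three weeks after a uniform surface spray of the water-diluted emulsion at the given g/ha rate. Seeds sat beneath about 1.5 cm of sterilized diluvial soil, and boxes stood in a greenhouse at 25 to 30° C.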

The next series deals with green foxtail. As to the kind of experiment: Test Example 3: weedkilling efficacy through soil treatment; E: green foxtail. The conditions noted are these: soil treatment, treatment dosage 320 g/ha. In outline:
as §3

For series [7], the system named is barnyard grass. Put plainly: Test Example 3: weedkilling efficacy through soil treatment; F: barnyard grass. The following applies: soil treatment, treatment dosage 320 g/ha. The source says: (§4) Weedkilling Efficacy Test Through Soil Treatment
(§5) Sterilized diluvial soil was introduced into 21 cm long, 13 cm wide, 7 cm deep plastic boxes, and seeds of crabgrass, green foxtail, barnyard grass, wild oat, black-grass, Italian ryegrass, common wind-grass, Indian mallow, redroot pigweed, fig-leafed goosefoot, chickweed, catchweed, birds-eye speedwell, corn, soybean, rice, wheat, beet and rapeseed were each spot-sown, and covered with about 1.5 cm of soil. Next, emulsions of compounds of the present invention prepared according to compounding example 2 were diluted with water to give the specified dosages, and applied uniformly onto the soil surface with a small sprayer. The plants were grown by placing the plastic boxes in a greenhouse at 25 to 30° C., and 3 weeks after the pesticide treatment the effect on each type of plant was investigated on the basis of the assessment criteria of test example 1.
(§6) A: barnyard grass, B: bulrush, C: oval-leafed pondweed, D: crabgrass, E: green foxtail, F: barnyard grass, G: wild oat, H: black-grass, I: Italian ryegrass, J: common wind-grass, K: Indian mallow, L: redroot pigweed, M: fig-leafed goosefoot, N: chickweed, O: catchweed, p: birds-eye speedwell, a: transplanted rice, b: directly sown rice, c: corn, d: soybean, e: wheat, f: beet, g: rapeseed
(§7) Further, pesticide dosage (g/ha) indicates the concentration regulated such that treatment was with only the stated number of grams (g), when calculated per hectare (ha).

In a further series the test system is wild oat. As to the kind of experiment: Test Example 3: weedkilling efficacy through soil treatment; G: wild oat. The following applies: soil treatment, treatment dosage 320 g/ha. In outline:
as §3

For another series, the system named is black-grass. As to the kind of experiment: Test Example 3: weedkilling efficacy through soil treatment; H: black-grass. The following applies: soil treatment, treatment dosage 320 g/ha. The gist of the method: as §3
For a further series, the system named is Italian ryegrass. As to the kind of experiment: Test Example 3: weedkilling efficacy through soil treatment; I: Italian ryegrass. The following applies: soil treatment, treatment dosage 320 g/ha. In outline:
as §3

The next series relates to common wind-grass. As to the kind of experiment: Test Example 3: weedkilling efficacy through soil treatment; J: common wind-grass. The following applies: soil treatment, treatment dosage 320 g/ha.
Excerpt: as §4, §5, §6, §7

For another series, the system named is Indian mallow. As to the kind of experiment: Test Example 3: weedkilling efficacy through soil treatment; K: Indian mallow. The conditions noted are these: soil treatment, treatment dosage 320 g/ha. The gist of the method:
as §3

Another series concerns redroot pigweed. As to the kind of experiment: Test Example 3: weedkilling efficacy through soil treatment; L: redroot pigweed. The conditions noted are these: soil treatment, treatment dosage 320 g/ha. The gist of the method: as §3
The next series concerns chickweed. Put plainly: Test Example 3: weedkilling efficacy through soil treatment; N: chickweed. The conditions noted are these: soil treatment, treatment dosage 320 g/ha. The gist of the method:
as §3

Another series concerns birds-eye speedwell. Put plainly: Test Example 3: weedkilling efficacy through soil treatment; p: birds-eye speedwell. The conditions noted are these: soil treatment, treatment dosage 320 g/ha. In outline: as §3
The next series concerns directly sown rice. Put plainly: Test Example 3: soil treatment, effect on crop; b: directly sown rice. The conditions noted are these: soil treatment, treatment dosage 320 g/ha. The gist of the method: as §3
A further series relates to corn. As to the kind of experiment: Test Example 3: soil treatment, effect on crop; c: corn. The following applies: soil treatment, treatment dosage 320 g/ha. In outline: as §3
A further series deals with soybean. Put plainly: Test Example 3: soil treatment, effect on crop; d: soybean. The following applies: soil treatment, treatment dosage 320 g/ha. In outline:
as §3

For a further series, the system named is wheat. As to the kind of experiment: Test Example 3: soil treatment, effect on crop; e: wheat. The following applies: soil treatment, treatment dosage 320 g/ha. In outline: as §3
In another series the test system is beet. As to the kind of experiment: Test Example 3: soil treatment, effect on crop; f: beet. The following applies: soil treatment, treatment dosage 320 g/ha. The gist of the method: as §3
For the next series, the system named is rapeseed. As to the kind of experiment: Test Example 3: soil treatment, effect on crop; g: rapeseed. The conditions noted are these: soil treatment, treatment dosage 320 g/ha.
Excerpt: as §4, §5, §6, §7

Each structure is given as a SMILES string.

Turning to `CC(C)(C(=O)Nc1ccc2ccccc2n1)N1COCN(c2ccccc2)C1=O` [A-1-24], in the series with barnyard grass [1], the “A: barnyard grass, weed kill grade” value was 5 (weed kill ratio 90% or more, (practically complete withering)). For the same molecule, the “B: bulrush, weed kill grade” value in the series with bulrush [2] is given as 5 (weed kill ratio 90% or more, (practically complete withering)). In addition, in the series on oval-leafed pondweed [3], the “C: oval-leafed pondweed, weed kill grade” value was 5 (weed kill ratio 90% or more, (practically complete withering)). In the series with transplanted rice, the “a: transplanted rice, effect on crop grade” value is reported as 0 (weed kill ratio 5% or less (practically no effect)). In the series with barnyard grass [4], the “A (barnyard grass) weedkilling efficacy grade” value is 4 (weed kill ratio 70% or more, less than 90%). Also, the “B (bulrush) weedkilling efficacy grade” value with bulrush [5] is listed as 5 (weed kill ratio 90% or more, (practically complete withering)). Further, in the series with oval-leafed pondweed [6], the “C (oval-leafed pondweed) weedkilling efficacy grade” value is recorded as 5 (weed kill ratio 90% or more, (practically complete withering)). For the same molecule, the “D: crabgrass, weedkilling efficacy grade” value in the series with crabgrass was 3 (weed kill ratio 40% or more, less than 70%). The “E: green foxtail, weedkilling efficacy grade” value in the series with green foxtail is 3 (weed kill ratio 40% or more, less than 70%). Besides, the “F: barnyard grass, weedkilling efficacy grade” value in the series with barnyard grass [7] is 2 (weed kill ratio 20% or more, less than 40%). Further, the “G: wild oat, weedkilling efficacy grade” value in the series on wild oat is reported as 0 (weed kill ratio 5% or less (practically no effect)). Also, the “H: black-grass, weedkilling efficacy grade” value in the series on black-grass is 1 (weed kill ratio 5% or more, less than 20%). Moreover, the “I: Italian ryegrass, weedkilling efficacy grade” value with Italian ryegrass is 3 (weed kill ratio 40% or more, less than 70%). Further, the “J: common wind-grass, weedkilling efficacy grade” value in the series with common wind-grass is given as 4 (weed kill ratio 70% or more, less than 90%). The “K: Indian mallow, weedkilling efficacy grade” value with Indian mallow was 0 (weed kill ratio 5% or less (practically no effect)). In addition, the “L: redroot pigweed, weedkilling efficacy grade” value in the series on redroot pigweed is 0 (weed kill ratio 5% or less (practically no effect)). The “N: chickweed, weedkilling efficacy grade” value with chickweed is reported as 0 (weed kill ratio 5% or less (practically no effect)). In the series with birds-eye speedwell, the “P: birds-eye speedwell, weedkilling efficacy grade” value was 4 (weed kill ratio 70% or more, less than 90%). The “b: directly sown rice, effect on crop grade” value with directly sown rice is reported as 0 (weed kill ratio 5% or less (practically no effect)). Further, the “c: corn, effect on crop grade” value in the series on corn is recorded as 0 (weed kill ratio 5% or less (practically no effect)). For the same molecule, the “d: soybean, effect on crop grade” value in the series on soybean is recorded as 0 (weed kill ratio 5% or less (practically no effect)). Further, the “e: wheat, effect on crop grade” value in the series on wheat is given as 0 (weed kill ratio 5% or less (practically no effect)). Also, the “f: beet, effect on crop grade” value with beet was 0 (weed kill ratio 5% or less (practically no effect)). Besides, in the series on rapeseed, the “g: rapeseed, effect on crop grade” value is 0 (weed kill ratio 5% or less (practically no effect)).

These data come from US9738634B2, “Heterocyclic amide compound and herbicide” (SYNGENTA PARTICIPATIONS AG, priority 2013, dated 2017).
